Experiment in all cases: DTP human tumour cell line panel, 48 h
The test system of test [1] is SK-MEL-28 melanoma.
Test [2] deals with TK-10 renal.
For test [3], the system named is SN12C renal.
The test system of test [4] is HS 578T breast.
Test [5] concerns HOP-92 NSCLC.
For test [6], the system named is SW-620 colon.
For test [7], the system named is IGROV1 ovarian.
For test [8], the system named is SK-MEL-5 melanoma.
For test [9], the system named is A498 renal.
Test [10] deals with MOLT-4 leukemia.

The record followed here is PubChem BioAssay (NCI).

Structures are written as SMILES.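 Following 48 hours of exposure in 96-well plates, responses at five concentrations were used to interpolate endpoints linearly. GI50 is the concentration that inhibits growth by half. TGI is the concentration that stops growth completely.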 Some results are limits rather than exact numbers.

Broadly, the TGI is the concentration giving total growth inhibition. `CC(=O)O[C@@H]1C[C@@]2(C)[C@@H]3CC=C4[C@@H](C[C@H](O)C(=O)C4(C)C)[C@]3(C)C(=O)C[C@]2(C)[C@H]1[C@@](C)(O)C(=O)/C=C/C(C)(C)OC(C)=O`: the TGI in [1] was 29.4 µM; in test [2], over 37.8 µM; in test [3], over 44.8 µM; in [4] it was over 100 µM; in test [5] it was 6.98 µM; in [6], 35.6 µM. In addition, the TGI is 10.2 µM in test [7], 11 µM in [8], 0.0591 µM in test [9] and over 31.6 µM in test [10].

By GI50 is commonly meant the concentration that inhibits growth by half. `Cc1[nH]c(-c2cc(N)ccc2Cl)c2c1C(=O)CCCC2`: the GI50 in test [1] is 6.5 µM; in [2], 2.19 µM; in test [3] it was 5.01 µM; in test [4], 2.11 µM; in test [5] it was 1.93 µM; in [6], 12.1 µM. The GI50 in test [7] was 2.58 µM; in test [8], 6.15 µM; in [9], 3.22 µM; in test [10] it was 8.32 µM. In addition, the TGI in [1] is over 100 µM; in test [2] it was 31 µM; in test [3] it was over 100 µM; in [4] it was 17.8 µM; in test [5], 63.8 µM; in [6], 55.6 µM. The TGI is 29.1 µM in test [7], 30.4 µM in test [8], 9.84 µM in [9] and over 100 µM in test [10].

Regarding `CN1CCN(CCCCCN=c2cc3c(=O)n(CCCCCN4CCN(C)CC4)c(=O)c4c(NCCCCCN5CCN(C)CC5)cc5c(O)n(CCCCCN6CCN(C)CC6)c(=O)c2c5c4-3)CC1`, the GI50 is 2.96 µM in [1]; 10.6 µM in test [2]; 2.55 µM in test [3]; 2.64 µM in test [4]; 1.84 µM in [5]; 3.31 µM in test [6]. In addition, the GI50 is 5.7 µM in [7], 14.1 µM in test [8], 19.2 µM in test [9] and 4.85 µM in test [10]. Also, the TGI in [1] came out at 8.14 µM; in test [2], 77.2 µM; in test [3], 9.73 µM; in test [4], 6.86 µM; in test [5] it was 7.39 µM; in test [6], 31.6 µM. Besides, the TGI in [7] is 29.4 µM; in [8] it was 58.8 µM; in test [9] it was 60 µM; in test [10] it was over 100 µM.

With `C[CH2][Hg][S]c1ccccc1C(=O)O`, the GI50 in test [1] was 1.71 µM; in test [2], 1.42 µM; in test [3] it was 1.31 µM; in [4], 2.08 µM; in [6], 0.838 µM; in test [7], 1.37 µM. Moreover, the GI50 in test [9] is 1.64 µM; in test [10], 2.43 µM. Besides, the TGI in [1] is 3.69 µM; in test [2] it was 2.73 µM; in test [3], 2.61 µM; in test [4], over 100 µM; in test [6], 2.24 µM; in test [7] it was 4.42 µM. Besides, the TGI worked out at 4.04 µM in [9] and 6.7 µM in test [10].

As for `Nc1nc(N)c(CCCCc2ccccc2)c(N)n1`, the TGI in [1], in test [2], in [3], in [4], in test [5] and in test [6] was over 100 µM in each case. Further, the TGI in [7], in test [8], in test [9] and in test [10] was over 100 µM in each case.

Turning to `COc1cc(C(=O)Nc2cc(O)c(CC=C(C)C)c(O)c2)cc2c1O[C@]1(C)CC[C@@H](O)C(C)(C)[C@H]1C2`, the GI50 in test [1] was 2.03 µM; in test [2] it was 2.91 µM; in [3] it was 8.12 µM; in test [4], 0.0471 µM; in test [6], 1.15 µM; in test [7] it was 7.06 µM. Moreover, the results for the GI50 in test [8], in test [9] and in [10] were 1.13 µM, 0.147 µM and 0.0641 µM, respectively. Further, the TGI in [1] came out at 22.8 µM; in test [2] it was 42.4 µM; in test [3] it was 60.2 µM; in test [4] it was 14 µM; in test [6], 11.9 µM; in test [7], 46.3 µM. For the same compound, the TGI in test [8] is 3.51 µM; in test [9] it was 15.7 µM; in test [10] it was 1.38 µM.

In the case of `O=C1c2c(Br)sc(Br)c2[C@@H](NC(=O)C(F)(F)F)C1Br` (stereo partly drawn), the TGI in test [1] is 8.51 µM; in test [2] it was 30.5 µM; in test [3] it was 8.33 µM; in [4], over 63.9 µM; in [5] it was 6.69 µM; in test [6], over 21.9 µM. Further, the total growth inhibition concentration (TGI) in test [7] was 10.5 µM; in test [8], 7.88 µM; in test [9], 28.7 µM; in [10], 5.32 µM.

Turning to `COc1cccc(Oc2ccccc2NC(=O)CNC(=O)c2cccc3ccccc23)c1`, the GI50 in [1] is 4.35 µM; in test [2], 1.58 µM; in test [3], 1.44 µM; in test [4] it was 0.381 µM; in [5], 0.202 µM; in test [6] it was 0.164 µM. Moreover, the GI50 was 1.04 µM in [7], 0.216 µM in [8], 0.115 µM in test [9] and 0.654 µM in test [10]. Moreover, the TGI in test [1] is over 25 µM; in test [2], over 25 µM; in [3] it was over 25 µM; in test [4], over 25 µM; in [5] it was 14.9 µM; in test [6], over 25 µM. The TGI in [7] is over 25 µM; in test [8], 3.65 µM; in test [9], 2.11 µM; in test [10], over 25 µM.

Regarding `O=C(O)c1ccccc1NC(=S)c1ccccc1`, the TGI is over 100 µM in [2]; over 100 µM in test [3]; over 100 µM in test [4]; 44.1 µM in test [5]; over 100 µM in [6]; 98.9 µM in [7]. Further, the TGI in test [8], in test [9] and in test [10] was over 100 µM each time.
